Test results from article PMC4398322, “Snake neurotoxin α-bungarotoxin is an antagonist at native GABAA receptors” (Neuropharmacology, 2015).
pEC50: −log10 of the molar value. Several values for one entry are separate records, joined by “and”; a condition that tells them apart may be missing. Equal values may be shown once. Read-outs that look alike come from different tables or passages of the source.

What was measured:
[1] = target: T1, α2β2γ2 GABAARs (Mus musculus, UniProt P22723+P26048+P63137); assay type: binding, murine
T1 construct: expressed in transfected cells; host or cells: HEK-293
Description: (§1) Murine GABAAR α1-6, β1-3, γ2 and δ cDNAs subcloned into pRK-5 and pEGFP-C1 have been described previously ([Mortensen et al., 2011]).
(§2) Cells were transfected with equimolar ratios of cDNAs encoding for α1–6, β1–3 and δ or γ2 GABAA receptor subunits along with eGFP using a calcium phosphate method ([Mortensen et al., 2011]) 15–45 min after plating.
Live transfected HEK-293 cells were studied 48 h after transfection and washed with Krebs to remove cell culture media and incubated in 400 nM α-Bgtx coupled with Alexa Fluor 555 (α-Bgtx-AF555; Life Technologies) for 10 min at room temperature (RT). Cells were washed and fixed in 4% paraformaldehyde (PFA; Sigma) for 10 min at RT. The cells were imaged immediately post-fixation in saline using a Zeiss LSM 510 Meta confocal microscope and an Achroplan x40 water DIC objective (NA 0.8) as described previously ([Hannan et al., 2012]). This involved choosing the optimal z-section and acquiring images as a mean of 4 scans in 16-bits using a 543 nm Helium–Neon laser and a 560 nm long-pass filter for α-Bgtx-AF555 and a 488 Argon laser with a 505–530 nm band-pass filter for eGFP.
Confocal images were analysed using ImageJ (version 1.410) as described previously ([Hannan et al., 2013]). For each cell the surface membrane was identified by drawing a region-of-interest (ROI) in the eGFP channel and this was transferred to the α-Bgtx-AF555 channel and the mean membrane fluorescence values were determined. Mean background fluorescence was determined from a region devoid of cells. This was subtracted from the mean membrane fluorescence providing a mean corrected fluorescence intensity value. These values, for different combinations of receptors and drugs, were graphically plotted using Origin.
To identify the location of the α-Bgtx binding site on GABAARs, we pre-incubated HEK-293 cells expressing α2β2γ2 with a range of ligands that act at GABAARs and nAChRs, for 5 min at RT followed by co-incubation with α-Bgtx-AF555 for 10 min at RT (Fig. 4A). These ligands were selected to ‘protect by binding occupancy’ known binding site domains on GABAARs and nAChRs.
A, Schematic of the experimental protocol. 48 hrs after transfection, HEK-293 cells expressing eGFP and α2β2γ2 were incubated in drug for 5 min at RT followed by the addition of drug +400 nM α-Bgtx-AF555 for 10 min at RT to label cell surface receptors. The cells were washed to remove the excess α-Bgtx-AF555, fixed and imaged. B, Images of cells expressing α2β2γ2, stained with α-Bgtx-AF555 in the presence of 1 mM d-Tc, 1 mM nicotine, or 1 mM carbachol. C, Mean cell surface fluorescence of α-Bgtx-AF555 bound to surface GABAARs in the presence of d-Tc, nicotine or carbachol. […] Scale bars 5 μm.

[2] = system: native hippocampal GABAARs; assay type: cell-based, rat
Description: Dissociated hippocampal neurons were prepared from embryonic day 18 rat pups as described ([Hannan et al., 2012]). Briefly, hippocampi were dissected in ice-cold Hank's Balanced Salt Solution (HBSS) (Ca^2+/Mg^2+ free) before enzymatic dissociation in 0.1% (w/v) trypsin at 37 °C for 10 min followed by serial washes in pre-warmed HBSS to remove trypsin prior to trituration. Cells were mechanically dissociated using fire-polished glass Pasteur pipettes in plating medium composed of minimal essential medium (MEM) supplemented with 5% (v/v) fetal calf serum (FCS), 5% (v/v) horse serum, penicillin-G and streptomycin (200 units/ml and 200 μg/ml), 2 mM L-glutamine and 35 mM glucose. Cells were plated at a density of 10^6 per ml in plating medium on glass cover-slips previously coated with poly-D-lysine. The neurons were grown and maintained at 37 °C in a humidified 95% air/5% CO2 atmosphere.
After plating (30 min), the medium was removed and replaced with maintenance medium composed of Neurobasal-A supplemented with 1% (v/v) B-27, penicillin-G and streptomycin (100 units/ml and 100 μg/ml), 0.5% (v/v) Glutamax and 35 mM glucose.
(§3) Patch electrodes had resistances of 4–5 MΩ and were filled with an internal solution containing (mM): 120 CsCl 1 MgCl2, 11 EGTA, 30 KOH, 10 HEPES, 1 CaCl2, and 2 K2ATP; pH – 7.2. HEK-293 cells were superfused with a saline solution containing (mM): 140 NaCl, 4.7 KCl, 1.2 MgCl2, 2.52 CaCl2, 11 Glucose, and 5 HEPES; pH 7.4. The saline for recording from primary neurons was supplemented with 2 mM kynurenic acid and pH adjusted to 7.4 to block all spontaneous excitatory post-synaptic currents (EPSCs). Membrane currents were filtered at 5 kHz (−3 dB, 6th pole Bessel, 36 dB/octave). HEK-293 cells were studied 48 h after transfection by voltage clamping cells at a holding potential of −20 to −40 mV with optimised series resistance (Rs, <10 MΩ) and whole-cell membrane capacitance compensation. Neuronal membrane currents were similarly recorded at a holding potential of −60 mV.
(§4) Spontaneous inhibitory postsynaptic currents (IPSCs) were recorded from dentate gyrus granule cells (DGGCs) with the same internal solution as above. Cells were voltage clamped at −60 mV and IPSCs were recorded using 5 kHz filtering with optimal series resistance and whole-cell capacitance compensation.

[3] = target: T2, α2β2γ2 GABAAR (Mus musculus, UniProt P22723+P26048+P63137); assay: Whole-cell GABA-activated currents in transfected HEK-293 cells (patch clamp); assay type: cell-based, murine
T2 construct: expressed in transfected cells; host or cells: HEK-293
Description: as §1, §2, §3, §4

[4] = system: dentate gyrus granule cells (DGGCs); assay: Spontaneous IPSCs in dentate gyrus granule cells of acute hippocampal slices; assay type: cell-based, mouse
Description: (§5) Acute transverse brain slices were prepared from adult (P115–125) male C57BL/6J mice in accordance with the UK Animals (Scientific Procedures) Act 1986.
(§6) The brain was rapidly removed after terminal anaesthesia with isoflurane and immersed in ice-cold slicing solution composed of (mM): 85 NaCl, 2.5 KCl, 1 CaCl2, 4 MgCl2, 1.25 NaH2PO4, 26 NaHCO3, 75 sucrose, and 25 glucose, 2 kynurenic acid, pH – 7.4. The slicing solution was continuously bubbled with 95% […] and 5% CO2. Transverse 250 μm slices containing the ventral hippocampus were cut with a Leica VT1200S vibroslicer. The slicing solution was exchanged at 37 °C for 60 min with a recording solution containing (mM): 125 NaCl, 2.5 KCl, 2 CaCl2, 1 MgCl2, 1.25 NaH2PO4, 26 NaHCO3, 2 kynurenic acid, and 25 glucose, pH 7.4.
as §4
IPSCs were detected and analysed using WinEDR and WinWCP (John Dempster, University of Strathclyde, UK). IPSC frequency was calculated using events detected over 60 s epochs of recording. […] This function provided the Gaussian mean amplitude current (μ) and standard deviation (σ). All the distributions were fitted using this function in Origin (Ver 6). The accuracy of the fits was checked by repeating the iterative non-linear fitting procedure after substituting the best-fit parameters obtained for the control and α-Bgtx datasets with new values.

[5] = system: dentate gyrus granule cells (DGGCs); assay: Tonic inhibition (holding current, RMS noise) in dentate gyrus granule cells of acute hippocampal slices; assay type: cell-based, mouse
Description: as §5, §6
For tonic inhibition, to determine the average holding currents, a 60 s continuous current recording was sampled every 1 s, discarding epochs that coincided with IPSCs. Any effect of drugs on the holding current was defined by subtracting the average holding currents in control and during drug application.
The baseline noise (RMS) was calculated before and during drug treatment. This was estimated from a continuous (30 s) current recording, sampled every 100 ms. The median current was calculated every 5 s and values more than twice the standard deviation from the median (usually due to IPSCs) were eliminated. Baseline GABA-mediated current noise was defined by subtracting RMS values before and after drugs, e.g., α-Bgtx or bicuculline.

[6] = target: T3, α4β2γ2 GABAAR (Mus musculus, UniProt P22723+P63137+Q9D6F4); assay type: cell-based, murine
T3 construct: expressed in transfected cells; host or cells: HEK-293
Description: as §1, §2
as §3, with “HEK-293 cells were studied 48 h after transfection by voltage clamping cells at a holding potential of −20 to −40 mV with optimised series resistance (Rs, <10 MΩ) and whole-cell membrane capacitance compensation.” left out
as §4

[7] = target: T4, α1β2γ2 GABAAR (Mus musculus, UniProt P22723+P62812+P63137); assay: Whole-cell GABA-activated currents in transfected HEK-293 cells (patch clamp); assay type: cell-based, murine
T4 construct: expressed in transfected cells; host or cells: HEK-293
Description: as §1, §2, §3, §4

[8] = target: T5, α5β2γ2 GABAAR (Mus musculus, UniProt P22723+P63137+Q8BHJ7); assay: as above; assay type: cell-based, murine
T5 construct: expressed in transfected cells; host or cells: HEK-293
Description: as §1, §2, §3, §4

[9] = target: T6, α4β2δ receptors (Mus musculus, UniProt P22933+P63137+Q9D6F4); assay: Whole-cell GABA-activated and leak currents in transfected HEK-293 cells (patch clamp); assay type: cell-based, murine
T6 construct: expressed in transfected cells; host or cells: HEK-293
Description: as §1, §2, §3, §4

[10] = system: GABAARs expressed in HEK293 cells; assay type: cell-based, murine
[11] = target: T7, α2β2 receptors (Mus musculus, UniProt P26048+P63137); assay: Whole-cell GABA-activated currents in transfected HEK-293 cells (patch clamp); assay type: cell-based, murine
T7 construct: expressed in transfected cells; host or cells: HEK-293
Description: as §1, §2
as §3, with “Whole-cell GABA-activated currents were recorded from transfected HEK-293 cells or hippocampal neurons in culture at 12–14 DIV using patch clamp electrophysiology. Patch” for “Patch”

[12] = 1 mM ligand, 5 min pre-incubation then + 400 nM α-Bgtx-AF555 10 min, n = 7, Fig. 4B–C

T1 sequence (P26048 29-451): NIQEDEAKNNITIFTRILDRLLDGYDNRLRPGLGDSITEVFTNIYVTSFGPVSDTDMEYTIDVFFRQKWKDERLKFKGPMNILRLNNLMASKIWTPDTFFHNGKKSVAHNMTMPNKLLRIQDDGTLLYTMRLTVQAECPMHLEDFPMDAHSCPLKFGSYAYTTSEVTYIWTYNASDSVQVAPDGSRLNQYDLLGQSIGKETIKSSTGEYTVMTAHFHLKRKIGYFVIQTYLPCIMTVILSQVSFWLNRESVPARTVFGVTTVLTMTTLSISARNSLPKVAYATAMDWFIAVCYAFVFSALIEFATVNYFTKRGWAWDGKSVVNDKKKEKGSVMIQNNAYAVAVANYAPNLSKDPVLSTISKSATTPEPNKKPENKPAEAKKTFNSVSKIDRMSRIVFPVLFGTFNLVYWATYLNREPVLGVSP
T1 sequence (P63137 25-512): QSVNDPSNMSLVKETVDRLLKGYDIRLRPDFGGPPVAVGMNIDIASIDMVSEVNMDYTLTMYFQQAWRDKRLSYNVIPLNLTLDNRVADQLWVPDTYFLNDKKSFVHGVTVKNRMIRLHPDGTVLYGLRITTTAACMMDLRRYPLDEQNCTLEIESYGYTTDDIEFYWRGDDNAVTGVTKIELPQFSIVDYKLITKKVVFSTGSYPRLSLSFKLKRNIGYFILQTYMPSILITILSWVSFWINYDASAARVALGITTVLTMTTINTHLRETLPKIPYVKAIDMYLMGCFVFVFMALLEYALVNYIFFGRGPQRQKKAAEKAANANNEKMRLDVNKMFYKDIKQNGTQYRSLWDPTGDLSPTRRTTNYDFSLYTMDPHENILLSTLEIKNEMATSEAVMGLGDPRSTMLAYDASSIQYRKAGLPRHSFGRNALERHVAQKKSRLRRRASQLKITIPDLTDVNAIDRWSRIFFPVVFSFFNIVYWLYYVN
T1 sequence (P22723 39-474): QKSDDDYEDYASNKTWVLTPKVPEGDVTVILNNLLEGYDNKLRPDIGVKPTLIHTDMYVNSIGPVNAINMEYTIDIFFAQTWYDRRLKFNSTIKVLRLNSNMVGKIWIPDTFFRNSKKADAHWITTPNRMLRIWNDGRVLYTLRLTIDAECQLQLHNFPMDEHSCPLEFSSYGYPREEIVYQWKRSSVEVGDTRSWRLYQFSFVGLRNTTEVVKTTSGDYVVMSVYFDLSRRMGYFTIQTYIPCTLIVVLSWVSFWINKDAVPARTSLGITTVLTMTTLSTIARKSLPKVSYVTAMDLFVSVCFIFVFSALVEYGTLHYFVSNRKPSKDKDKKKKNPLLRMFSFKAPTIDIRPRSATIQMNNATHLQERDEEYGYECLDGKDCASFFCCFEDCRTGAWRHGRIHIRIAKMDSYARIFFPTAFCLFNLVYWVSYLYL
T6 sequence (P22933 17-449): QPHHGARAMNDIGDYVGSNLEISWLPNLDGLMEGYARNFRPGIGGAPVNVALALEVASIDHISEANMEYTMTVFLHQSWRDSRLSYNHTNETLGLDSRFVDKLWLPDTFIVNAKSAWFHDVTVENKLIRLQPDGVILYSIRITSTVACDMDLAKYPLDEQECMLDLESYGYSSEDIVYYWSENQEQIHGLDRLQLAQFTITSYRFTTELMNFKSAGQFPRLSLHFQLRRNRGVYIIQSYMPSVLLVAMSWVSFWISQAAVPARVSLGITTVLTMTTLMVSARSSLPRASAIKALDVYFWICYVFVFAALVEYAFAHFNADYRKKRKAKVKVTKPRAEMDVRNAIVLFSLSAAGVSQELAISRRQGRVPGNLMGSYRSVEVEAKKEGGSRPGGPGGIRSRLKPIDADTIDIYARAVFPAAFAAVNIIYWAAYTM
T6 sequence (P63137 25-512): as the sequence (P63137 25-512) above
T6 sequence (Q9D6F4 36-552): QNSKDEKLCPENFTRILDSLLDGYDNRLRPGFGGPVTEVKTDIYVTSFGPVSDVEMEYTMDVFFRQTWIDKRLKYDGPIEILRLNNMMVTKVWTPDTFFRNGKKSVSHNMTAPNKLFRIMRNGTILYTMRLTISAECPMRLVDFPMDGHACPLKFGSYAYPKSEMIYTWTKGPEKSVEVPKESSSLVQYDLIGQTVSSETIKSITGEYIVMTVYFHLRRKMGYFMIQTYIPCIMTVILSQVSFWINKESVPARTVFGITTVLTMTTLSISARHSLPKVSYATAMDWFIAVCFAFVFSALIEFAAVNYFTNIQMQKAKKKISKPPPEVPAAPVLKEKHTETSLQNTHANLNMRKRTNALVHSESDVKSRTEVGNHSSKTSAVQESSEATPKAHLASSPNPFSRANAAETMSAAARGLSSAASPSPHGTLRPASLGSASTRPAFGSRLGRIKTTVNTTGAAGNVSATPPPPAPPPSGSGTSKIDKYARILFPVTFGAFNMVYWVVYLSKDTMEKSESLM
T2 sequence (P63137 25-512): as the sequence (P63137 25-512) above
T2 sequence (P26048 29-451): as the sequence (P26048 29-451) above
T2 sequence (P22723 39-474): as the sequence (P22723 39-474) above
T5 sequence (P22723 39-474): as above
T5 sequence (Q8BHJ7 32-463): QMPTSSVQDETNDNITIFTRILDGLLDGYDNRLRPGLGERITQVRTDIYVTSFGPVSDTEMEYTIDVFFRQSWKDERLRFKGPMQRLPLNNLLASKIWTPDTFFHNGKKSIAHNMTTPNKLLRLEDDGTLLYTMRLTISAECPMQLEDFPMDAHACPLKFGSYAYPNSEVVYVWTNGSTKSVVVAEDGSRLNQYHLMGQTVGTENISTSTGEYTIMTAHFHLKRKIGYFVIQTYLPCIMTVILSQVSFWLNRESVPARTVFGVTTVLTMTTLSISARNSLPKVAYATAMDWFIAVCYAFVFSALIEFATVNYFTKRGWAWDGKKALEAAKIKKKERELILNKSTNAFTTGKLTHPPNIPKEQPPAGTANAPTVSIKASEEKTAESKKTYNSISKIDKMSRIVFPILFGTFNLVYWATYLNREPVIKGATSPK
T5 sequence (P63137 25-512): as the sequence (P63137 25-512) above
T7 sequence (P26048 29-451): as the sequence (P26048 29-451) above
T7 sequence (P63137 25-512): as the sequence (P63137 25-512) above
T3 sequence (P63137 25-512): as above
T3 sequence (P22723 39-474): as the sequence (P22723 39-474) above
T3 sequence (Q9D6F4 36-552): as the sequence (Q9D6F4 36-552) above
T4 sequence (P63137 25-512): as the sequence (P63137 25-512) above
T4 sequence (P22723 39-474): as the sequence (P22723 39-474) above
T4 sequence (P62812 28-455): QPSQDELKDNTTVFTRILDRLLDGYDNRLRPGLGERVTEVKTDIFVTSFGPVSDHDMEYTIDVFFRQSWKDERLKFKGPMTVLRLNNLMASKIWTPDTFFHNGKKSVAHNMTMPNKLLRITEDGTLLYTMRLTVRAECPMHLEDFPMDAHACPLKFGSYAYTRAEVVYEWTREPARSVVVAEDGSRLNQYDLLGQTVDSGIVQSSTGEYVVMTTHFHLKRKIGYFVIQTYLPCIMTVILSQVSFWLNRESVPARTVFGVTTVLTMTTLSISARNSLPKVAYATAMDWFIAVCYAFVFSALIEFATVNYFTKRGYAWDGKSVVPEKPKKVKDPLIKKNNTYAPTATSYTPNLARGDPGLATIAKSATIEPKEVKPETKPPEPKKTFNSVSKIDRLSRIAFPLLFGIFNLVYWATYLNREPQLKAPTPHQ

Molecule: C[N+](C)(C)CCOC(N)=O [carbachol]
- α-Bgtx-AF555 binding in presence of ligand [1, 12]: 100.5 ± 11.3 % of control

Molecule: CCN1C[C@]2(COC(=O)c3ccccc3N3C(=O)C[C@H](C)C3=O)CC[C@H](OC)[C@@]34[C@@H]5C[C@H]6[C@H](OC)[C@@H]5[C@](O)(C[C@@H]6OC)[C@@](O)([C@@H](OC)[C@H]23)[C@@H]14 [MLA, methyllaconitine]
- effect on currents activated by sub-maximal GABA [2]: < 1 % of control
- inhibition of GABA-activated currents ([2]; 10 μM GABA, 1 nM MLA, 1 min pre-incubation then co-applied, n = 6, P > 0.05): 0.8 ± 1.7 % inhibition
- effect on amplitude of GABA-activated currents ([3]; 1 nM MLA pre-applied 1 min before co-application with GABA): did not affect the amplitude
- frequency of IPSCs ([4]; 1 nM MLA, n = 5, control 4.12 ± 0.9 Hz, P > 0.05): 3.75 ± 1.2 Hz
- median IPSC amplitude ([4]; 1 nM MLA, n = 6098 events, control −30.82 pA, P > 0.05): −30.21 pA
- DGGC holding current ([5]; 1 nM MLA): slightly reduced

Molecule: α-bungarotoxin [α-Bgtx]
- inhibition of GABA currents [2]: 33 ± 9%
- reversibility of inhibition [2]: reversible
- inhibition of submaximal GABA currents [6]: 41.3 ± 4.4%
- inhibition of submaximal GABA currents [7]: 23.8 ± 3%
- inhibition of submaximal GABA currents [8]: 15.3 ± 5.9%
- potentiation of submaximal GABA responses [9]: 46 ± 5% and 40 ± 6%
- reduction in leak current in HEK-293 cells expressing α4β2δ relative to reduction of the leak in DGGCs [9]: over 40 fold
- reduction of leak current [9]: 56 ± 3.7 pA and 75 ± 13 pA
- reduction of saturating GABA currents [10]: 13.0 ± 5.9%
- IPSC amplitude distribution, Gaussian peak 1 mean [4]: −13.66 pA
- IPSC amplitude distribution, Gaussian peak 2 mean [4]: −19.01 pA
- frequency of IPSCs [4]: 2.17 ± 0.34 Hz
- median IPSC amplitude [4]: −23.19 pA
- RMS noise [5]: 3.39 ± 0.59 pA
- change in DGGC holding current [5]: 1.27 ± 1.21 pA

Molecule: Oc1noc2c1CCNC2 [THIP]
- response compared with maximal GABA (1 mM) ([9]; 300 μM THIP): superagonist ability

Molecule: [Zn+2] [Zn^2+]
- inhibition of submaximal GABA currents by Zn^2+ [3]: 37.4 ± 8.9%
- inhibition of submaximal GABA currents by Zn^2+ [11]: 90.8 ± 4.44%

Molecule: picrotoxin
- α-Bgtx-AF555 binding in presence of ligand [1]: 106.7 ± 14.9 % of control

Molecule: NCCCC(=O)O [GABA, γ-aminobutyric acid]
- α-Bgtx-AF555 binding in presence of ligand [1]: 34.9 ± 7.1 % of control
- pEC50 ([8]; n = 5): 5.61

Molecule: COc1cc2c3cc1Oc1cc(ccc1O)C[C@@H]1c4c(cc(OC)c(O)c4Oc4ccc(cc4)C[C@@H]3N(C)CC2)CC[N+]1(C)C [d-Tc, d-tubocurarine]
- inhibition of whole-cell GABA-activated currents [2]: 92 ± 4 % inhibition
- α-Bgtx-AF555 binding in presence of ligand ([1]; 1 mM d-Tc, n = 6, Fig. 4D–E): 7.1 ± 1.9 % of control
- α-Bgtx-AF555 binding in presence of ligand [1, 12]: 1.8 ± 1.3 % of control

Molecule: CCCC(C)C1(CC)C(=O)NC(=O)NC1=O (centres unmarked) [pentobarbital]
- modulation of 1 μM GABA currents ([2]; 20 μM pentobarbital): potentiated

Molecule: CN1CCC[C@H]1c1cccnc1 [nicotine]
- α-Bgtx-AF555 binding in presence of ligand [1]: 90.5 ± 11.4 % of control

Molecule: CN1CCc2cc3c(cc2[C@H]1[C@@H]1OC(=O)c2c1ccc1c2OCO1)OCO3 [bicuculline]
- RMS noise ([5]; 50 μM bicuculline applied after α-Bgtx, n = 6, P < 0.05): 2.74 ± 0.34 pA
- average tonic current revealed (change in holding current) ([5]; 50 μM bicuculline, n = 7): 9.31 ± 2.52 pA
